{
  "source": "a compilation of properties of binary mixtures (doi:10.1016/j.molliq.2018.12.024)",
  "assay": "xn = mol fraction of the nth substance listed",
  "details": "298.15 K, 100 kPa",
  "data": [
    {"smiles": "CC(=O)[O-].Cn1cc[nH+]c1", "note": "+ CC(=O)[O-].C[NH+]1CCOCC1", "values": [
      {"measurement": "electrical conductivity", "setting": "x1 = 1", "result": 0.448, "unit": "S/m"}
    ]},
    {"smiles": "CC(=O)[O-].C[NH+]1CCOCC1", "note": "+ CC(=O)[O-].Cn1cc[nH+]c1", "values": [
      {"measurement": "electrical conductivity", "setting": "x2 = 0", "result": 0.0229, "unit": "S/m"},
      {"measurement": "electrical conductivity", "setting": "x2 = 0.1", "result": 0.0447, "unit": "S/m"},
      {"measurement": "electrical conductivity", "setting": "x2 = 0.19", "result": 0.0662, "unit": "S/m"},
      {"measurement": "electrical conductivity", "setting": "x2 = 0.31", "result": 0.0959, "unit": "S/m"},
      {"measurement": "electrical conductivity", "setting": "x2 = 0.4", "result": 0.158, "unit": "S/m"},
      {"measurement": "electrical conductivity", "setting": "x2 = 0.5", "result": 0.202, "unit": "S/m"},
      {"measurement": "electrical conductivity", "setting": "x2 = 0.59", "result": 0.242, "unit": "S/m"},
      {"measurement": "electrical conductivity", "setting": "x2 = 0.8", "result": 0.331, "unit": "S/m"}
    ]},
    {"smiles": "CCCC[N+]1(C)CCCC1.O=S(=O)([N-]S(=O)(=O)C(F)(F)F)C(F)(F)F", "note": "+ CC(=O)[O-].Cn1cc[nH+]c1", "values": [
      {"measurement": "viscosity", "setting": "x2 = 0", "result": 74.9, "unit": "mPa·s"}
    ]},
    {"smiles": "CCCC[n+]1ccn(C)c1.O=S(=O)([N-]S(=O)(=O)C(F)(F)F)C(F)(F)F", "note": "+ CC(=O)[O-].Cn1cc[nH+]c1", "values": [
      {"measurement": "viscosity", "setting": "x2 = 0", "result": 49.3, "unit": "mPa·s"}
    ]},
    {"smiles": "COS(=O)(=O)[O-].Cn1cc[n+](C)c1", "note": "+ CC(=O)[O-].Cn1cc[nH+]c1", "values": [
      {"measurement": "viscosity", "setting": "x2 = 0", "result": 93.4, "unit": "mPa·s"}
    ]},
    {"smiles": "CC(=O)[O-].Cn1cc[nH+]c1", "note": "+ CCCC[N+]1(C)CCCC1.O=S(=O)([N-]S(=O)(=O)C(F)(F)F)C(F)(F)F", "values": [
      {"measurement": "viscosity", "setting": "x1 = 0.1", "result": 59.5, "unit": "mPa·s"},
      {"measurement": "viscosity", "setting": "x1 = 0.31", "result": 38.8, "unit": "mPa·s"},
      {"measurement": "viscosity", "setting": "x1 = 0.4", "result": 33.3, "unit": "mPa·s"},
      {"measurement": "viscosity", "setting": "x1 = 0.59", "result": 21.1, "unit": "mPa·s"},
      {"measurement": "viscosity", "setting": "x1 = 0.71", "result": 15.9, "unit": "mPa·s"},
      {"measurement": "viscosity", "setting": "x1 = 0.8", "result": 12.1, "unit": "mPa·s"}
    ]},
    {"smiles": "CC(=O)[O-].Cn1cc[nH+]c1", "note": "+ CCCC[n+]1ccn(C)c1.O=S(=O)([N-]S(=O)(=O)C(F)(F)F)C(F)(F)F", "values": [
      {"measurement": "viscosity", "setting": "x1 = 0.1", "result": 42.8, "unit": "mPa·s"},
      {"measurement": "viscosity", "setting": "x1 = 0.19", "result": 38.4, "unit": "mPa·s"},
      {"measurement": "viscosity", "setting": "x1 = 0.31", "result": 33.5, "unit": "mPa·s"},
      {"measurement": "viscosity", "setting": "x1 = 0.4", "result": 28.8, "unit": "mPa·s"},
      {"measurement": "viscosity", "setting": "x1 = 0.5", "result": 24.5, "unit": "mPa·s"},
      {"measurement": "viscosity", "setting": "x1 = 0.59", "result": 20.2, "unit": "mPa·s"},
      {"measurement": "viscosity", "setting": "x1 = 0.71", "result": 15.5, "unit": "mPa·s"},
      {"measurement": "viscosity", "setting": "x1 = 0.8", "result": 12.2, "unit": "mPa·s"},
      {"measurement": "viscosity", "setting": "x1 = 1", "result": 6.22, "unit": "mPa·s"}
    ]},
    {"smiles": "CC(=O)[O-].Cn1cc[nH+]c1", "note": "+ COS(=O)(=O)[O-].Cn1cc[n+](C)c1", "values": [
      {"measurement": "viscosity", "setting": "x1 = 0.71", "result": 19.9, "unit": "mPa·s"},
      {"measurement": "viscosity", "setting": "x1 = 0.8", "result": 13.6, "unit": "mPa·s"},
      {"measurement": "viscosity", "setting": "x1 = 1", "result": 6.22, "unit": "mPa·s"}
    ]}
  ]
}
